Here are results for 73 molecules from PubChem BioAssay AID179 (DTP/NCI, 2004).

In this assay the test system is CEM cells HIV-1 protection, formazan growth assay. The experiment in a line: NCI AIDS Antiviral Assay. The conditions noted are these: for pIC50: measured here: growth of uninfected CEM cells. In outline:
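Human CEM cells, uninfected and HIV-1-infected, exposed to five drug concentrations; growth measured by soluble formazan assay and scored as percent protection from infection, with protecting compounds retested.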

pEC50, pIC50: −log10 of the molar value. The source made the active and inactive calls.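 The calls were made as follows: active = compounds giving half or more protection of infected cells from virus-caused growth loss, again on retest; inactive = the rest.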 *1 amine or outer side, *2 acyl side, *3 side chain or, on linkers, in order; H or OH if unused. Where a SMILES comes first, the peptide text is derived from it. [ ]: non-standard residue; d: D form. X1 = O=C(C1=CN(Cc2ccccc2)C=CC1N[*:1])[*:2]

In the case of `CC(O)CN(N)CC(C)O` (stereo not given), the result was inactive.
Consider `NC1=NCN2C(=N1)OC1C(O)C(CO)OC12` (stereo not given), for which the pEC50 was under 3.70 and the pIC50 was under 3.70.
With `CCOC(=O)C1=C(O)CSC1=Nc1ccc(N=C2SCC(O)=C2C(=O)OCC)cc1`, the result was inactive.
For the molecule `O=C1NC2(CN3CCC2CC3)C(=O)N1CN(Cc1ccccc1)c1ccccc1` (stereo not given), the pEC50 is under 3.70 and the pIC50 was 4.04.
In the same order, the values of `CCOc1ccccc1NC(=O)CC1SC(=Nc2ccc([N+](=O)[O-])cc2)NC1=O` (stereo not given) are under 3.64 and 4.03.
For `COc1ccc2c(O)c(S(=O)(=O)c3ccc(C)cc3)c(=O)oc2c1` the same measures were under 3.70 and 3.88.
Consider `CCOC(=O)C(NC(=O)c1ccccc1)(Nc1ccc(S(=O)(=O)Nc2cc(C)nc(C)n2)cc1)C(F)(F)F` (stereo not given), for which the pEC50 was under 3.70 and the pIC50 was under 3.70.
Regarding `[O-][n+]1c(-c2ccccc2)c2nc3ccccc3nc2c2ccccc21`, the pEC50 is under 4.40 and the pIC50 was under 4.40.
For `CN(C)CC/C(=N\Nc1ccccc1)c1ccccc1`, the outcome was inactive.
Regarding `c1ccc(-c2cc3ccc4cccnc4c3o2)cc1`, the pEC50 is under 3.97 and the pIC50 was 4.25.
For `CCOC(=O)C(NC(=O)Nc1ccccc1F)(OC)C(F)(F)F` (stereo not given) the same measures were under 3.70 and under 3.70.
For `CC1(C)C(=O)c2cc3ccccc3nc2-c2ccccc21` the same measures were under 3.70 and 4.61.
As to `Nc1nonc1-c1noc(-c2nonc2N)[n+]1[O-]`, the pEC50 is under 3.70 and the pIC50 was 4.91.
For the molecule `CCOC(=O)C1=C(Nc2ccccc2)OC/C1=N\NC(=O)Cc1ccccc1`, the pEC50 was under 4.33 and the pIC50 is under 4.33.
On to `COc1ccc2[nH]c(Br)c(CCNC(C)=O)c2c1`, for which the pEC50 is under 3.70 and the pIC50 was under 3.70.
As to `O=c1c2ccccc2[nH]c(=S)n1-c1ccc(Br)cc1`, the pEC50 is under 4.39 and the pIC50 was under 4.39.
For the molecule `COc1cc(C2(C)SCCCS2)cc(OC)c1OC`, the pEC50 was under 3.74 and the negative logarithm of the IC50 (pIC50) is under 3.74.
As to `O=[N+]([O-])c1ccc(C2OCC3CSCN32)cc1` (stereo not given), the pEC50 was under 4.40 and the pIC50 was under 4.40.
Consider `COc1ccc(C2C(Cl)C(=O)N2n2cnc3ccccc3c2=O)cc1` (stereo not given), for which the pEC50 is under 5.42 and the pIC50 was under 5.42.
Regarding `CC(CCC(C)C(=O)O)C(=O)O` (stereo not given), the pEC50 was under 2.84 and the pIC50 was under 2.84.
Regarding `O=C1c2ccc(S(=O)(=O)O)cc2C(=O)c2cc(S(=O)(=O)O)ccc21`, the outcome was inactive.
Take `CN1C(=O)c2ccccc2Cc2c(Cl)ncnc21`: the pEC50 is under 3.70 and the pIC50 is 4.46.
On to `O=[N+]([O-])C1=Cc2cc(Cl)ccc2OC1c1cccc2ccccc12` (stereo not given), for which the pEC50 was under 5.70 and the pIC50 is 6.01.
On to `CC1=C(c2cc(C(=O)Nc3cc(C)ccc3C)nc(N)n2)Sc2ccccc2N1`, for which the pEC50 was under 4.89 and the pIC50 was under 4.89.
Regarding `CCn1nc(C)c2c1C(=O)NC(C)C(=O)N2` (stereo not given), the pEC50 was under 3.70 and the pIC50 is under 3.70.
`CC1NC(=O)C(C(C)C)NC(=O)C2=CN(Cc3ccccc3)C=CC2NC(=O)C(C)NC(=O)C(C(C)C)NC(=O)C2=CN(Cc3ccccc3)C=CC2NC1=O` (stereo not given) (cyclo([X1]VA[X1]VA); configuration not given here): the pEC50 was under 4.63 and the pIC50 is under 4.63.
As for `OC1(c2ccccc2)N=C(c2ccccc2)c2ccccc2-n2cccc21` (stereo not given), the pEC50 was under 3.70 and the pIC50 is under 3.70.
Consider `Nc1nn2cc3c(nc2c1N=Nc1ccc(Cl)cc1)CCC3`, for which the pEC50 is under 3.82 and the pIC50 is under 4.00.
For `CCN(CC)Cc1c(/C=C\c2cc(OC)c(OC)c(OC)c2)ccc(OC)c1O`, the pEC50 was under 3.70 and the pIC50 was 5.96.
For `NC(=O)C(F)(F)C(N)=O`, the pEC50 was under 3.70 and the pIC50 is under 3.70.
Consider `COc1cccc2c1C(=O)c1c(O)c3c(c(O)c1C2=O)C[C@@](O)(C(C)=O)CC3OC1CC(N=[N+]=[N-])C(OC)C(C)O1` (stereo not given in full), for which the result was inactive.
`COc1ccc2c(c1)N=C(N)n1c(nc3ccccc31)S2`: the pEC50 is under 3.70 and the pIC50 was 5.18.
For `COc1ccc(N=Nc2ccc3oc(=O)c(C(=O)Nc4ccccc4)cc3c2)cc1` the same measures were under 3.70 and 4.48.
`CCC(=O)c1cn(C)c(=O)c2ccccc12`: the result was inactive.
The same measure, in the same setting: the value for `COC(=O)C1C2OC(C)(C)OC2CN1S(=O)(=O)c1ccc(C)cc1` (stereo not given) was “inactive”.
For `O=C(/C=C/c1ccccc1O)C(c1ccccc1)c1ccccc1`, the pEC50 was under 4.92 and the pIC50 was under 4.92.
Regarding `CC(C)(C)OC1=C(OC(C)(C)C)C(O)(c2ccc(Cl)cc2)C1=O` (stereo not given), the result was inactive.
In the case of `FC(F)(F)c1ccc(N=NN2CCCC2)cc1`, the pEC50 was under 3.70 and the pIC50 is 4.64.
Take `CC12CCC3CCCCC3(OO1)[C@@H](OCc1ccccc1)O2` (stereo not given in full): the pEC50 is under 4.53 and the negative logarithm of the IC50 (pIC50) is under 4.53.
On to `Nc1[nH]c(=O)nc(Nc2ccc(Cl)c(Cl)c2)c1N=O`, for which the pEC50 was under 3.70 and the negative-log IC50 (pIC50) is 4.87.
`O=C1/C=C(/c2ccc(O)cc2)[C@H](O)Cc2ccc(OC3OC(CO)C(O)C(O)C3O)cc2O1` (stereo not given in full) (tested in a mixture with another compound): the pEC50 was under 3.60 and the negative-log IC50 (pIC50) is under 3.60.
`O=C(CCc1cc(-c2ccc(F)cc2)n[nH]1)N(Cc1ccccc1)Cc1ccccc1`: the pEC50 was under 4.76 and the pIC50 was under 4.76.
For the molecule `CC1=Cc2cccc(C)c2C(=O)C1=O`, the pEC50 is under 4.41 and the pIC50 is 5.19.
As to `COC(=O)n1c(=O)n(-c2ccccc2)c(=O)n1C(=O)Nc1ccccc1`, the pEC50 is under 3.70 and the negative-log IC50 (pIC50) is 3.71.
`CC(=O)C1(c2ccccc2)CCNCC1`: the outcome was inactive.
With `CCOC(=O)CNC(=O)CNC(=O)CNC(=O)CNNc1c(OCc2ccccc2)c(=O)c1=O`, the pEC50 is under 3.70 and the pIC50 is under 3.70.
As to `N/N=C1\C(=O)N(C2CCCCCC2)C(=O)C1C(=O)NC1CCCCCC1` (stereo not given), the pEC50 is under 4.84 and the pIC50 is under 4.84.
`N#CCCN(CCC#N)CCN(CCN(CCC#N)CCC#N)CCN(CCC#N)CCC#N`: the pEC50 is under 3.70 and the pIC50 is under 3.70.
Regarding `COc1ccc(C2c3cc4c(cc3OC(NCCO)C2C)OCO4)cc1` (stereo not given), the pEC50 is under 3.70 and the negative-log IC50 (pIC50) is 4.66.
In the same order, the values of `O=S(=O)([O-])c1ccc2c(c1)-c1nc-2nc2[n-]c(nc3nc(nc4[n-]c(n1)c1ccc(S(=O)(=O)[O-])cc41)-c1cc(S(=O)(=O)[O-])ccc1-3)c1ccc(S(=O)(=O)[O-])cc21.[Cu+2].[Na+]` are under 3.60 and 6.22.
In the same order, the values of `Cn1c(=O)nc2n(CCO)ccnc-2c1=O` are under 4.00 and under 4.00.
Consider `COC1=C(Br)[C@H](O)[C@@]2(C=C1Br)CC(C(=O)NCCCCCN=C(N)N)=NO2`, for which the pEC50 was under 5.00 and the pIC50 is under 5.00.
`C=CCCC1CCCCNC1=S` (stereo not given): the pEC50 was under 3.70 and the pIC50 is under 3.70.
For `O=C(O)c1ccccc1S(=O)O`, the pEC50 is under 3.70 and the pIC50 was under 3.70.
On to `COC1(CCO)CC=CCC1(CCO)OC` (stereo not given), for which the pEC50 is under 3.70 and the pIC50 was under 3.70.
On to `COc1cc(/C=C/c2nc(NC(=S)Nc3ccccc3)nnc2C)cc(OC)c1OC`, for which the pEC50 was under 3.70 and the pIC50 is 4.86.
In the same order, the values of `CN1c2ccccc2S(=O)(=O)n2c(CCc3ccccc3)nnc21` are under 3.98 and under 3.98.
As to `C=CCOc1ccc(Sc2c(O)cc(-c3ccccc3)oc2=O)c(C(C)(C)C)c1`, the pEC50 is under 3.70 and the pIC50 is 4.50.
For `COc1cc(C2c3cc4c(cc3CC3COC(=O)N32)OCO4)cc(OC)c1OC` (stereo not given) the same measures were under 4.60 and 5.86.
In the case of `CCOC(=O)n1ccc2c(C(=O)OC)c(C(=O)OC)cc(/C(=C/C(=O)OC)C(=O)OC)c21`, the pEC50 was under 3.82 and the negative-log IC50 (pIC50) was 3.99.
For the molecule `Clc1cc(Cl)cc(N=C/C=C/Nc2cc(Cl)cc(Cl)c2)c1`, the outcome was inactive.
In the case of `CC1(C)N([O-])[N+](=O)C1(Br)c1ccccc1` (stereo not given), the pEC50 was under 3.70 and the pIC50 was 3.84.
In the same order, the values of `CCOC(=O)/C(C#N)=C/c1ccco1` are under 3.58 and under 3.58.
With `NC(=N\N=C\C(O)C(O)C(O)C(O)C(=O)O)/C(N)=N/N=C/C(O)C(O)C(O)C(O)C(=O)O` (stereo not given), the result was inactive.
As to `COC(=O)c1c2c(cc3c1CC1(Cc4cc5c(c(C=O)c4C1)CCCC5)C3)CCCC2` (stereo not given), the pEC50 is under 3.70 and the negative-log IC50 (pIC50) is 4.61.
In the same order, the values of `CCOC(=O)C1(C(=O)OCC)Cc2c([nH]c3ccccc23)CN1C(=O)c1ccccc1` are under 4.65 and under 4.65.
Regarding `CCN(CC)CN1C(=O)C(=O)c2ccccc21`, the pEC50 was under 3.70 and the negative logarithm of the IC50 (pIC50) is under 3.70.
With `O=C(NO)c1ccc(OCc2ccccc2)cc1`, the pEC50 is under 3.70 and the pIC50 was 4.79.
For `CC1=Nn2c(nnc2-c2ccc(Cl)cc2)NC(C)(C)C1` the same measures were under 4.21 and under 4.21.
In the case of `COC1OC(CS)C(N)C1OS(C)(=O)=O` (stereo not given), the pEC50 was under 3.70 and the pIC50 is 3.81.
In the case of `O=C(O)c1cc(O)c2ccc(N=Nc3ccc(/C=C/c4ccc(N=Nc5ccc6c(O)cc(C(=O)O)nc6c5O)cc4S(=O)(=O)O)c(S(=O)(=O)O)c3)c(O)c2n1`, the pEC50 is 4.99 and the pIC50 is 4.30.
Turning to `CC(C)CNC(=O)Cn1c2c(c3ccccc31)CCCC2`, the pEC50 is under 3.70 and the pIC50 is 4.09.
For `COCC(C)(C)N=CN1Cc2cc3ccccc3nc2C1` the same measures were under 3.75 and under 3.75.
